Laboratory results as given in patent US20220056052A1, “QUINAZOLINE DERIVATIVES AS ECTONUCLEOTIDE PYROPHOSPHATASE PHOSPHODIESTERASE 1 INHIBITORS” (Riboscience LLC, priority 2018, published 2022).
Counter-ions that a name gives are not always drawn.

Columns and labels:
HGS tumor model = experiment: Anti-tumor activity in HGS tumor model; type: in vivo; details: animals treated with 20/kg of compound, day 42 after inoculation (vehicle 645)
Description: […]

ENPP1 [1] = target: T1, ENPP1 (Homo sapiens, UniProt P22413); experiment: Measurement of 2′3′-cGAMP hydrolysis by ENPP1 (AMP-Glo)
T1 sequence (P22413 1-925): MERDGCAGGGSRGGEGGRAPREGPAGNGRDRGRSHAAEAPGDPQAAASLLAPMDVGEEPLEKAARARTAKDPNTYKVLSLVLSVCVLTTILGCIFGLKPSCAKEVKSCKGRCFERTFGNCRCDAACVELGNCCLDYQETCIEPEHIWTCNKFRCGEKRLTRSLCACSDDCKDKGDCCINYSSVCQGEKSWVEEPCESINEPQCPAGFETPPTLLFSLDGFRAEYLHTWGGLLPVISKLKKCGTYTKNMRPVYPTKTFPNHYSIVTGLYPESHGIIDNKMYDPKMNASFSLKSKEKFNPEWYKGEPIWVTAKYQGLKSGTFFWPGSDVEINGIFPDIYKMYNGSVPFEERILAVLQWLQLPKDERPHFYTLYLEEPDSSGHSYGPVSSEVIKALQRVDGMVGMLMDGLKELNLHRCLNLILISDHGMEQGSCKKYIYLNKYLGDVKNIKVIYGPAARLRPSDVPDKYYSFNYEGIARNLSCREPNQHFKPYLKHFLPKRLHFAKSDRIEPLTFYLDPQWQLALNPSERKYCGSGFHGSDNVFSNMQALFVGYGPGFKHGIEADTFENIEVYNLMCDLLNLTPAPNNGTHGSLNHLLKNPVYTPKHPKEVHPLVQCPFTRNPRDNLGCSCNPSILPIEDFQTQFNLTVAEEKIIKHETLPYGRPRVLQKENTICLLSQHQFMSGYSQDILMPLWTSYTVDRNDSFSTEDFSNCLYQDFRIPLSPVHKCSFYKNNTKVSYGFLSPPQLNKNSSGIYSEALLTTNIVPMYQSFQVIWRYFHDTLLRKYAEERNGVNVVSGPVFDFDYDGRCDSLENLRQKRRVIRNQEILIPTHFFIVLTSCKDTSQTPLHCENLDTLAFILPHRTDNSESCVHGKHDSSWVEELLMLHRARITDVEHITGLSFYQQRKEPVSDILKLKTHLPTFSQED
Experimental: Then, 15 μl of the ENPP1/Compound incubation was transferred to the 200 μM 2′3′-cGAMP solution to initiate the reaction. The 30 μl mixture was incubated for 30 min at 25° C. […] After 30 min the reaction was stopped by heating at 90° C. for 3 min.
Third, now the Promega AMP-Glo kit was used to detect 5′-AMP production as a measurement of ENPP1 enzyme activity. To do this, 10 μl of the above mentioned 30 μl total reaction per sample was transferred into 384 well white solid assay plate for measurement of 5′-AMP production. For each well, 10 μl of AMP-Glo Reagent I was added, mixed well, and incubated for 1 hour at 25° C. At this time AMP detection solution was prepared and 20 μl was added per well, and the resulting solution was incubated for 1 hr at 25° C. Duplicates were run for each inhibitor concentration. Luminescence signal (relative luminescence units, RLU) was recorded using a PerkinElmer 2300 Enspire multimode plate reader.
IC50 values of compounds were determined by loading compound concentration data and percent inhibition values into GraphPad Prism (GraphPad Prism version 7.0 for Windows, GraphPad Software, La Jolla Calif. USA, www.graphpad.com) and conducted a Sigmoidal variable slope nonlinear regression fitting.

ENPP1 [2] = target: T1, ENPP1; experiment: Measurement of pNP-TMP hydrolysis by ENPP1; type: biochemical; details: substrate pNP-TMP, (S) 500 μM, KM 232 μM; Ki from IC50 by Cheng-Prusoff
Experimental: p-Nitrophenyl thymidine 5′-monophosphate (pNP-TMP) is a synthesized substrate for ENPP1. The ENPP1 enzyme activity assay with pNP-TMP substrate was conducted as follows:
Incubation of ENPP1 with compounds was set at 25° C. for 10 min.
Absorbance at 405 nm was recorded immediately in kinetic mode by PerkinElmer 2300 Enspire multimode plate reader.
For each inhibitor, the specific ENPP1 activity was calculated using the following equation: ENPP1 activity (pmol/min/μg)=Adjusted Vmax (OD405 nm/min)×conversion factor (pmol/OD405 nm)/amount of enzyme (μg)
Adjusted Vmax=V0×(Km+(S))/(S). […] V0=(OD405 nm with ENPP1−OD405 nm ENPP1 blank)/minutes. OD405 nm was plotted, with blank subtracted, against time (minutes), the initial linear rate is V0. […]
The slope is the conversion factor. The percent ENPP1 activity for each sample was calculated using the following equation:
% enzyme activity=sample enzyme activity/MAX Activity×100%.
To determine the IC50 for each compound, compound concentration values and percent enzyme activity values were inserted into GraphPad Prism (GraphPad Prism version 7.0 for Windows, GraphPad Software, La Jolla Calif. USA, www.graphpad.com), and Prism's Transform analysis was used to convert the x-axis values (compound concentration) to logarithms. A sigmoidal variable slope nonlinear regression analysis was performed using the following equation: Y=Bottom+(Top−Bottom)/(1+10^((Log IC50^−X)*HillSlope)).

| Ki (ENPP1 [1]) | Ki (ENPP1 [2]) | SMILES | tumor size (HGS tumor model) |
| --- | --- | --- | --- |
| – | – | C=CC(=O)N1CCN(CCCn2c(=O)c(-c3c(Cl)c(OC)cc(OC)c3Cl)cc3cnc(NC)nc32)CC1 [8-(3-(4-acryloylpiperazin-1-yl)propyl)-6-(2,6-dichloro-3,5-dimethoxyphenyl)-2-(methylamino)pyrido(2,3-d)pyrimidin-7(8H)-one] | 55 mm3 |
| < 1 nM | – | COc1cc2ncnc(N3CCC(CCCB(O)O)CC3)c2cc1OC [Cpd. 3, (3-(1-(6,7-dimethoxyquinazolin-4-yl)piperidin-4-yl)propyl)boronic acid] | – |
| < 5 nM | – | COc1cc2ncnc(N3CCC(CP(=O)(O)O)CC3)c2cc1OC [Cpd. 4, ((1-(6,7-dimethoxyquinazolin-4-yl)piperidin-4-yl)methyl)phosphonic acid] | – |
| < 1 nM | < 10 nM | COc1cc2ncnc(NCc3ccc(B(O)O)cc3)c2cc1OC [Cpd. 7, (4-(((6,7-dimethoxyquinazolin-4-yl)amino)methyl)phenyl)boronic acid formic acid salt] | – |
| – | < 1 nM | COc1cc2ncnc(-c3ccc(COS(N)(=O)=O)cc3)c2cc1OC [Cpd. 17, 4-(6,7-dimethoxyquinazolin-4-yl)benzyl sulfamate] | – |
| < 1 nM | < 5 nM | COc1cc2ncnc(N3CCC(CCCP(=O)(O)O)CC3)c2cc1OC [compound 6, (3-(1-(6,7-dimethoxyquinazolin-4-yl)piperidin-4-yl)propyl)phosphonic acid] | – |
| < 10 nM | – | COc1cc2ncnc(NCc3ccc(B(O)O)cn3)c2cc1OC [compound 8, (6-(((6,7-dimethoxyquinazolin-4-yl)amino)methyl)pyridin-3-yl)boronic acid] | – |
| < 10 nM | – | COc1cc2ncnc(Nc3ccc4c(c3)COB4O)c2cc1OC [compound 10, 5-((6,7-dimethoxyquinazolin-4-yl)amino)-1,3-dihydro-2,1-benzoxaborol-1-ol] | – |
| – | < 10 nM | COc1cc2ncnc(NCc3ccc(B(O)O)cc3F)c2cc1OC [compound 11, 4-(((6,7-dimethoxyquinazolin-4-yl)amino)methyl)-3-fluorophenylboronic acid formic acid salt] | – |
| < 1 nM | < 10 nM | COc1cc2ncnc(NCc3cccc(B(O)O)c3)c2cc1OC [compound 12, (3-(((6,7-dimethoxyquinazolin-4-yl)amino)methyl)phenyl)boronic acid] | – |
| < 5 nM | – | COc1cc2ncnc(NCc3ccc(P(=O)(O)O)cc3)c2cc1OC [compound 13, (4-(((6,7-dimethoxyquinazolin-4-yl)amino)methyl)phenyl)phosphonic acid] | – |
| < 5 nM | – | COc1cc2ncnc(NCC3CCN(S(N)(=O)=O)CC3)c2cc1OC [compound 18, 4-(((6,7-dimethoxyquinazolin-4-yl)amino)methyl)piperidine-1-sulfonamide] | – |
| < 1 nM | < 5 nM | COc1cc2ncnc(OCc3ccc(B(O)O)cc3)c2cc1OC [compound 19, (4-(((6,7-dimethoxyquinazolin-4-yl)oxy)methyl)phenyl)boronic acid] | – |
| < 5 nM | – | COc1cc2ncnc(OCc3ccc4c(c3)B(O)OC4)c2cc1OC [compound 20, 6-(((6,7-dimethoxyquinazolin-4-yl)oxy)methyl)-3H-2,1-benzoxaborol-1-ol] | – |
| < 10 nM | – | COc1cc2ncnc(OCc3ccc4c(c3)COB4O)c2cc1OC [compound 21, 5-(((6,7-dimethoxyquinazolin-4-yl)oxy)methyl)-3H-2,1-benzoxaborol-1-lol] | – |
| – | < 10 nM | COc1cc2ncnc(NCc3c(F)cc(B(O)O)cc3F)c2cc1OC [compound 24, 4-(((6,7-dimethoxyquinazolin-4-yl)amino)methyl)-3,5-difluorophenylboronic acid hydrochloride] | – |
| – | < 5 nM | COc1ccc2c(NCc3ccc(B(O)O)cc3)ncnc2c1 [compound 30, 4-(((7-methoxyquinazolin-4-yl)amino)methyl)phenylboronic acid] | – |
| – | < 5 nM | COc1ccc2c(NCc3ccc(P(=O)(O)O)cc3)ncnc2c1 [compound 41, 4-(((7-methoxyquinazolin-4-yl)amino)methyl)phenylphosphonic acid formic acid salt] | – |
